This passage reports TGI and GI50 results from PubChem BioAssay (NCI).

What all share (assay): NCI tumour cell line growth inhibition, 48 h
Experiment [1] deals with A498 renal.
Experiment [2] deals with HOP-62 NSCLC.
For experiment [3], the system named is HOP-92 NSCLC.
Experiment [4] deals with LOX IMVI melanoma.
In experiment [5] the test system is NCI-H460 lung.
Experiment [6] has as its system NCI-H522 lung.
Experiment [7] deals with SK-MEL-2 melanoma.
Experiment [8] relates to TK-10 renal.
Experiment [9] relates to U251 CNS.
The subject of experiment [10] is BT-549 breast.

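Each compound was tested at five concentrations against cells in 96-well plates for 48 hours. GI50 = concentration required for 50% inhibition of growth. TGI is the concentration that stops growth completely.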

For the compound `O=C1CCC(=O)N2CCCCN12`, the TGI in experiment [1], in experiment [2], in experiment [3], in [4], in experiment [5] and in [6] was over 100 µM throughout. The TGI in experiment [7], in experiment [8] and in experiment [9] was over 100 µM in each case.

Consider `NC(=O)C(=O)N/N=C(\CC1(O)C(=O)Nc2ccccc21)c1ccc2ccccc2c1` (stereo unspecified), for which the TGI in [1] is 82.1 µM; in experiment [2], over 100 µM; in experiment [3], 87.8 µM; in experiment [4], 85.5 µM; in [5], over 100 µM; in [6], 41.6 µM. The TGI in experiment [7] is 48.5 µM; in [8] it was over 100 µM; in experiment [9] it was 76.4 µM.

Take `COc1cc([N+](=O)[O-])cc2c3c(n(C)c12)[C@@]1(C)CCC2c4ccc(OCc5ccccc5)cc4CCC2C1C3` (stereo partly specified): the GI50 in experiment [1] was 35.6 µM; in experiment [10] it was over 100 µM; in [2], 43.7 µM; in experiment [4], 65 µM; in [5] it was 90.1 µM; in [6] it was 53.6 µM. The figures for the GI50 in [7], in experiment [8] and in experiment [9] were over 100 µM, 86 µM and 37.5 µM, respectively. Moreover, the TGI in [1], in experiment [10], in [2], in experiment [4], in experiment [5] and in experiment [6] was over 100 µM throughout. In addition, the TGI in [7], in experiment [8] and in [9] was over 100 µM in each case.

In the case of `Cc1cccc(C)c1NC(=O)C(=O)C1C(=O)NC(=O)NC1=O`, the TGI in experiment [1], in experiment [2], in experiment [3], in [4], in experiment [5] and in experiment [6] was over 100 µM in each case. The TGI in experiment [8] and in experiment [9] was over 100 µM in each case.

For the compound `O=C1O[C@@H](c2ccc3c(c2)OCO3)C2C(=O)O[C@@H](c3ccc4c(c3)OCO4)C12` (stereo partly specified), the TGI in experiment [1], in [2], in [3], in [4], in [5] and in [6] was over 100 µM throughout. The TGI in experiment [7], in experiment [8] and in experiment [9] was over 100 µM in each case.

For `CCCCN=C(NC#N)NCCCC`, the TGI in experiment [1], in [2], in experiment [3], in experiment [5], in experiment [6] and in experiment [7] was over 100 µM throughout. Also, the TGI in experiment [8] and in [9] was over 100 µM in each case.

For `O=C(/C=C/c1c(O)ccc2ccccc12)c1cccc(O)c1`, the TGI in experiment [1] was over 100 µM; in experiment [2], over 100 µM; in experiment [3] it was 99.5 µM; in experiment [4] it was over 72.1 µM; in [5], over 100 µM; in experiment [6] it was over 100 µM. For the same compound, the TGI in experiment [7], in experiment [8] and in [9] was over 100 µM throughout.

With `CCC(C)c1c(Cl)nc(Cl)nc1Cl` (stereo unspecified), the TGI was 4.65 µM in experiment [10]; 16 µM in experiment [2]; over 100 µM in [4]; 34.2 µM in [5]; 2.51 µM in experiment [6]; over 100 µM in [7]. Further, the TGI in [8] was found to be 41.3 µM; in experiment [9], 15.4 µM.

As to `CCC[CH2][Sn]([CH2]CCC)([O]C(=O)c1cccnc1SC)[O]C(=O)c1cccnc1SC`, the GI50 was 0.676 µM in [1]; 2.43 µM in experiment [2]; 0.602 µM in experiment [3]; 0.302 µM in experiment [4]; 1.66 µM in experiment [5]; 0.0216 µM in experiment [6]. Further, the GI50 is 0.311 µM in [7], 0.527 µM in experiment [8] and 0.596 µM in [9]. The TGI was 1.95 µM in experiment [1]; 4.22 µM in experiment [2]; 1.93 µM in experiment [3]; 1.37 µM in experiment [4]; 3.47 µM in experiment [5]; 0.133 µM in experiment [6]. Also, the TGI was determined as 1.39 µM in [7], 1.69 µM in [8] and 1.84 µM in experiment [9].

Consider `Cc1ccc2c(c1)[n+]([O-])c(N)n[n+]2[O-]`, for which the TGI in experiment [1], in [10], in [2], in [4], in [5] and in experiment [6] was over 100 µM in each case. For the same compound, the TGI in [7], in [8] and in experiment [9] was over 100 µM throughout.

Take `O=C1/C(=C/c2ccccc2)CNC/C1=C\c1ccccc1`: the TGI in experiment [1] worked out at 4.57 µM; in [2], 7.46 µM; in [3], 22.1 µM; in experiment [4] it was 2.05 µM; in [5] it was 3.08 µM; in experiment [6] it was 2.66 µM. The TGI was determined as 9.18 µM in [7], 7.61 µM in experiment [8] and 1.37 µM in [9].

With `CSC(C1c2ccccc2N(c2ccc(C)cc2)C2=NC(=O)N(C)C(=O)C21Cl)S(=O)(=O)c1ccc(C)cc1` (stereo unspecified), the TGI stood at 92.7 µM in experiment [1]; 43.3 µM in experiment [2]; 27.9 µM in [3]; 40.3 µM in experiment [4]; 64.8 µM in experiment [5]; 31.9 µM in experiment [6]. Moreover, the results for the TGI in [7], in experiment [8] and in experiment [9] were 38.9 µM, over 100 µM and 38.9 µM, respectively.

As to `COc1ccc(/C(COc2c(-c3ccccc3)oc3ccccc3c2=O)=N\O)cc1`, the GI50 in [10] is 12.3 µM; in [2] it was 49.6 µM; in experiment [3], over 50 µM; in experiment [4], 12.4 µM; in experiment [5], 12.3 µM; in [6], 11.1 µM. The figures for the GI50 in [7], in experiment [8] and in experiment [9] were 9.82 µM, 10.2 µM and 18.9 µM, respectively. Also, the TGI in experiment [10] is 25.6 µM; in experiment [2], over 50 µM; in experiment [3], over 50 µM; in experiment [4], 26.5 µM; in experiment [5], 39.6 µM; in experiment [6] it was 28.5 µM. Besides, the values for the TGI in experiment [7], in experiment [8] and in [9] were 45.5 µM, 26.2 µM and over 50 µM, respectively.
